Measurements taken from patent publication US20090281054A1, “COMPOSITIONS AND METHODS COMPRISING CAPURAMYCIN ANALOGUES” (priority 2008, published 2009).
Converted amounts (≈) assume the structure as drawn. “And” between values parts separate entries of the source, which are not always exact repeats. Equal values may be shown once. Read-outs that look alike come from different tables or passages of the source.

What was measured:
[1] = system: MAC; test: Synergy by checkerboard titration (microdilution); type: cell-based, M. avium complex; conditions: for MIC Combination: combination SQ641 + EMB; for MIC: Mycobacterium avium, drug alone
[2] = system: M. smegmatis (MSMG; MC2155); test: MIC by microdilution method in 7H9 broth; type: cell-based; conditions: MSMG MC^2155, 72 hr
[3] = system: M. kansaii (MKN; ATCC12478 & 35775); test: MIC by microdilution method in 7H9 broth; type: cell-based, M. kansasii
[4] = system: M. smegmatis; test: Synergy by checkerboard titration (microdilution); type: cell-based; conditions: M. smegmatis; for MIC: Mycolicibacterium smegmatis, drug alone
[5] = system: M. avium complex (MAC); test: MIC by microdilution method in 7H9 broth; type: cell-based; conditions: for MIC90: value in square brackets
[6] = system: MTB-pSMT1 luciferase reporter strain; test: Activity against slowly replicating (hypoxic) MTB; type: cell-based; conditions: Mycobacterium tuberculosis
[7] = system: M. abscessus (MAB; ATCC 700869); test: MIC by microdilution method in 7H9 broth; type: cell-based; conditions: MAB 700869
[8] = system: MTB in J774 cells; test: Intracellular activity of amino acid conjugates; type: cell-based, Mycobacterium tuberculosis; conditions: day 0 RLU 775, Control day 7 31700
Experimental: The amino acid conjugates were tested at concentrations of 4 mg/mL and 8 mg/mL compared with a control and isoniazid (INH).
The intracellular activity against MTB by capuramycin amino acid derivatives was tested. Cells J774 were infected with MTB and treated for 7 days with the amino acid derivative. The mean Relative Light Unites (RLU), an estimation of bacterial viability, was measured as described in Snewin et al., Infect. Immun., 1999, 67(9), 4586-4593).

[9] = system: MTB H37Rv; test: MIC by broth microdilution; type: cell-based; conditions: Mycobacterium tuberculosis
Experimental: (§1) The SQ997 amino acid derivatives shown in Table 2 were tested for in vitro activity against MTB, cytotoxicity for uninfected J774 cells to determine IC50, and for intracellular activity in the macrophage assay (Table 15). […] Cell viability remained similar to SQ997, or slightly better as cell morphologic changes were reduced.

[10] = in vitro; type: cell-based; conditions: mouse
Experimental: as §1

[11] = system: intracellular MTB (MTBp-SMT1) in J774A.1 macrophages; test: Intracellular activity of SQ641-TPGS micelles; type: cell-based, Mycobacterium tuberculosis
[12] = system: M. abscessus; test: Synergy by checkerboard titration (microdilution); type: cell-based
[13] = system: MTB; type: in vivo, mouse; conditions: IP, 250 mg/kg, 2 weeks treatment
[14] = system: MTB in macrophages; type: cell-based, Mycobacterium tuberculosis
[15] = Mycolicibacterium smegmatis, MC2155|MC^2155, read-out: MIC
[16] = Mycobacterium kansasii, ATCC 12478 / ATCC 35775, MKN ATCC35775, read-out: MIC
[17] = Mycobacterium kansasii, MKN ATCC12478, read-out: MIC
[18] = Mycobacterium avium, 336 h, MAC isolates, 2 wk, read-out: MIC (range)
[19] = Mycobacterium avium, MAC isolates, read-out: MIC90
[20] = Mycobacteroides abscessus, ATCC700869, read-out: MIC

Compound: CC[C@@H](CO)NCCN[C@@H](CC)CO [EMB, ethambutol, reference compound]
- MIC Combination ([1]; MAC A5): 0.062 µg/mL
- MIC Combination ([1]; MAC JSH1): 8.0 µg/mL
- MIC Combination ([1]; MAC NIH C1-1): 2.0 µg/mL
- MIC ([1]; MAC A5): 1 µg/mL
- MIC ([1]; MAC JSH1): 32 µg/mL
- MIC ([1]; MAC NIH C1-1): 8 µg/mL
- MIC [2, 15]: 0.5 µg/mL (≈ 2.45 µM)
- MIC [3, 16]: 1 µg/mL (≈ 4.89 µM)
- MIC [3, 17]: 2 µg/mL (≈ 9.79 µM)
- MIC Combination ([4]; combination SQ641 + EMB): 0.12 µg/mL
- MIC [4]: 0.5 µg/mL
- MIC [5, 18]: 0.5 to 32 µg/mL (≈ 2.45 to 157 µM)
- MIC ([5]; Mycobacterium avium, MAC strain 100, read-out: MIC): 4 µg/mL (≈ 19.6 µM)
- MIC ([5]; Mycobacterium avium, MAC strain 101, read-out: MIC): 1 µg/mL (≈ 4.89 µM)
- MIC ([5]; Mycobacterium avium, MAC strain 104, read-out: MIC): 2 µg/mL (≈ 9.79 µM)
- MIC ([5]; Mycobacterium avium, MAC strain 109, read-out: MIC): 0.5 µg/mL (≈ 2.45 µM)
- MIC ([5]; Mycobacterium avium, MAC strain A5, read-out: MIC): 1 µg/mL (≈ 4.89 µM)
- MIC ([5]; Mycobacterium avium, MAC strain JSH1, read-out: MIC): 16 µg/mL (≈ 78.3 µM)
- MIC ([5]; Mycobacterium avium, MAC strain NIH C1-1, read-out: MIC): 4 µg/mL (≈ 19.6 µM)
- MIC ([5]; Mycobacterium avium, MAC strain NIH C1-2, read-out: MIC): 2 µg/mL (≈ 9.79 µM)
- MIC ([5]; Mycobacterium avium, MAC strain NIH C1-3, read-out: MIC): 32 µg/mL (≈ 157 µM)
- MIC ([5]; Mycobacterium avium, MAC strain NIH C1-4, read-out: MIC): 2 µg/mL (≈ 9.79 µM)
- MIC90 [5, 19]: 16 µg/mL (≈ 78.3 µM)
- MIC [6]: 2 µg/mL (≈ 9.79 µM)
- MIC ([6]; Hypoxic, […]): 32 µg/mL (≈ 157 µM)
- MIC [7, 20]: > 32 µg/mL

Compound: CCCCCCCCCC(=O)O[C@@H]1[C@H](OC)[C@@H]([C@@H](OC2OC(C(=O)N[C@H]3CCC[C@@H](C)NC3=O)=C[C@H](OC(=O)CCOCCOCCOCCOCCN)[C@@H]2O)C(N)=O)O[C@H]1n1ccc(=O)[nH]c1=O (stereo partly drawn) [SQ641-topdec]
- Mean RLU on day 7 ([8]; 4 μg/ml): 3368 RLU
- Mean RLU on day 7 ([8]; 8 μg/ml): 2143 RLU

Compound: CCCCCCCCCC(=O)O[C@@H]1[C@H](OC)[C@@H]([C@@H](OC2OC(C(=O)N[C@H]3CCC[C@@H](C)NC3=O)=C[C@H](OC(=O)CCOCCOCCOCCOCCN)[C@@H]2OC(=O)CCOCCOCCOCCOCCN)C(N)=O)O[C@H]1n1ccc(=O)[nH]c1=O (stereo partly drawn) [SQ641-2topdec]
- Mean RLU on day 7 ([8]; 4 μg/ml): 4354 RLU
- Mean RLU on day 7 ([8]; 8 μg/ml): 2903 RLU

Compound: CO[C@H]1[C@@H](OC(=O)[C@H](N)C(C)C)[C@H](N2C=CC(=O)NC2)O[C@@H]1[C@@H](OC1OC(C(=O)N[C@H]2CCC[C@@H](C)NC2=O)=C[C@H](O)[C@@H]1O)C(N)=O (stereo partly drawn) [Compound 997-D-Val]
- MIC [9]: 12.5 µg/mL (≈ 18.7 µM)
- IC50 [10]: > 32 µg/mL

Compound: CO[C@H]1[C@@H](OC(=O)C2CCNCC2)[C@H](N2C=CC(=O)NC2)O[C@@H]1[C@@H](OC1OC(C(=O)N[C@H]2CCC[C@@H](C)NC2=O)=C[C@H](O)[C@@H]1O)C(N)=O (stereo partly drawn) [997-isonipecotic acid]
- MIC [9]: 8 µg/mL (≈ 11.8 µM)
- IC50 [10]: > 32 µg/mL

Compound: CO[C@H]1[C@@H](OC(=O)[C@@H](N)C(C)C)[C@H](N2C=CC(=O)NC2)O[C@@H]1[C@@H](OC1OC(C(=O)N[C@H]2CCC[C@@H](C)NC2=O)=C[C@H](O)[C@@H]1O)C(N)=O (stereo partly drawn) [Compound 997-L-Val]
- MIC [9]: 12.5 µg/mL (≈ 18.7 µM)
- IC50 [10]: > 32 µg/mL

Compound: CO[C@H]1[C@@H](OC(=O)CCCCCCCN)[C@H](N2C=CC(=O)NC2)O[C@@H]1[C@@H](OC1OC(C(=O)N[C@H]2CCC[C@@H](C)NC2=O)=C[C@H](O)[C@@H]1O)C(N)=O (stereo partly drawn) [997-aminooctanoic acid]
- MIC [9]: 8 µg/mL (≈ 11.3 µM)
- IC50 [10]: > 32 µg/mL

Compound: CCCCCCCCCC(=O)O[C@@H]1[C@H](OC)[C@@H]([C@@H](OC2OC(C(=O)N[C@H]3CCC[C@@H](C)NC3=O)=C[C@H](OC(=O)CCCCCCCCCCN)[C@@H]2O)C(N)=O)O[C@H]1n1ccc(=O)[nH]c1=O (stereo partly drawn) [SQ641-aua]
- Mean RLU on day 7 ([8]; 4 μg/ml): 3163 RLU
- Mean RLU on day 7 ([8]; 8 μg/ml): 372 RLU

Compound: CO[C@H]1/C=C/O[C@@]2(C)Oc3c(C)c(O)c4c(O)c(c(/C=N/N5CCN(C)CC5)c(O)c4c3C2=O)NC(=O)/C(C)=C\C=C\[C@H](C)[C@H](O)[C@@H](C)[C@@H](O)[C@@H](C)[C@H](OC(C)=O)[C@@H]1C [RIF, rifampicin, reference compound]
- Mean RLU at Day 7 [11]: 22 RLU
- MIC [2, 15]: 8 µg/mL (≈ 9.72 µM)
- MIC ([3]; Mycobacterium kansasii, ATCC12478): 0.125 µg/mL (≈ 0.152 µM)
- MIC ([3]; Mycobacterium kansasii, ATCC 12478 / ATCC 35775): 0.125 µg/mL (≈ 0.152 µM)
- MIC Combination ([4]; combination SQ641 + RIF): 2.0 µg/mL
- MIC [4]: 8 µg/mL
- MIC [5, 18]: 0.062 to 4 µg/mL (≈ 0.0753 to 4.86 µM)
- MIC90 [5, 19]: 1 µg/mL (≈ 1.22 µM)
- MIC [7, 20]: > 32 µg/mL

Compound: CO[C@H]1[C@@H](OC(=O)CCCCCCCCCCN)[C@H](N2C=CC(=O)NC2)O[C@@H]1[C@@H](OC1OC(C(=O)N[C@H]2CCC[C@@H](C)NC2=O)=C[C@H](O)[C@@H]1O)C(N)=O (stereo partly drawn) [997-aminoundecanoic acid]
- MIC [9]: 2 µg/mL (≈ 2.66 µM)
- IC50 [10]: 32 µg/mL (≈ 42.5 µM)

Compound: [H]/N=C(/N)N[C@H]1[C@H](O)[C@@H](O)[C@H](O[C@@H]2O[C@@H](C)[C@](O)(C=O)[C@H]2O[C@@H]2O[C@@H](CO)[C@H](O)[C@@H](O)[C@@H]2NC)[C@@H](N/C(N)=N\[H])[C@@H]1O [SM, streptomycin, reference compound]
- MIC ([12]; Mycobacteroides abscessus, drug alone): 8 µg/mL
- MIC Combination ([12]; combination SQ641 + SM): 2.0 µg/mL
- MIC [2, 15]: 0.5 µg/mL (≈ 0.86 µM)
- MIC [3, 16]: 2 µg/mL (≈ 3.44 µM)
- MIC [3, 17]: > 32 µg/mL
- MIC Combination ([4]; combination SQ641 + SM): 0.25 µg/mL
- MIC [4]: 0.5 µg/mL
- MIC [6]: 0.25 µg/mL (≈ 0.43 µM)
- MIC ([6]; Hypoxic, […]): 1 µg/mL (≈ 1.72 µM)
- MIC [7, 20]: 8 µg/mL (≈ 13.8 µM)

Compound: D-alpha-tocopheryl poly(ethylene glycol) 1000 succinate [TPGS]
- Lung CFU ± SD ([13]; Control 3.8 ± 1.9 × 10^8): 3.0 ± 1.3 × 10^8 CFU
- Lung Log CFU ([13]; Control 8.58): 8.48 Log CFU
- Effect of TPGS alone on MTB growth in macrophages [14]: increased MTB growth
- Mean RLU on day 7 [14]: 13903 RLU and 14595 RLU and 13942 RLU

Compound: CO[C@H]1/C=C/O[C@@]2(C)Oc3c(C)c(O)c4c(c3C2=O)C2=NC3(CCN(CC(C)C)CC3)NC2=C(NC(=O)/C(C)=C\C=C\[C@H](C)[C@H](O)[C@@H](C)[C@@H](O)[C@@H](C)[C@H](OC(C)=O)[C@@H]1C)C4=O [RFB, reference compound]
- MIC Combination ([12]; combination SQ641 + RFB): 0.25 µg/mL
- MIC Alone ([12]; drug alone): 2.0 µg/mL
- MIC [2]: 0.25 µg/mL (≈ 0.295 µM)
- MIC ([3]; MKN ATCC12478): ≦0.0039 μg/ml
- MIC ([3]; MKN ATCC35775): ≦0.031 μg/ml
- MIC range ([5]; MAC isolates, 2 wk): 0.0078 to 0.125 µg/mL
- MIC90 ([5]; MAC isolates): 0.062 µg/mL (≈ 0.0732 µM)
- MIC [7]: 2 µg/mL (≈ 2.36 µM)

Compound: CO[C@H]1[C@@H](OC(=O)c2ccncc2)[C@H](N2C=CC(=O)NC2)O[C@@H]1[C@@H](OC1OC(C(=O)N[C@H]2CCC[C@@H](C)NC2=O)=C[C@H](O)[C@@H]1O)C(N)=O (stereo partly drawn) [997-isonicotinic acid]
- MIC [9]: 4 µg/mL (≈ 5.93 µM)
- IC50 [10]: > 32 µg/mL
